Measured values from patent publication US10143199B2, “Method of killing bedbug eggs” (Ecolab USA Inc., priority 2012, dated 2018).

What was measured:
Format in all cases: in vivo
[1] = system: Bedbug eggs; experiment: Treating bedbug eggs with anionic compounds near neutral pH (Example 2), kill of eggs; details: pH 7-8, 100° F., 5 min
Method: (§1) Aqueous test compositions of each of several anionic compounds prepared and adjusted to near neutral pH of about 7-8. Bedbug eggs were then contacted with a 100° F. test composition for 5 min.

[2] = system: Bedbug Eggs and Nymphs; experiment: Treating bedbug eggs with anionic compounds near neutral pH (Example 2), kill of eggs and nymphs; details: pH 7-8, 100° F., 5 min
Method: as §1

[3] = system: Bedbug eggs; experiment: Treating bedbug eggs on a substrate with test composition at pH 9 to 10 (Example 1); details: 1% solution, pH of 9 to 10, 100° F., 5 minutes exposure
Method: Bedbug eggs on a substrate were exposed to a 100° F. test composition for 5 minutes and then examined. […] Water by itself killed about 20% of the bedbug eggs. And, complete kill was accomplished by a commercial bedbug killer sold under the tradename Transport.

| Compound | % Kill of Bedbug Eggs ([1]; 1% aqueous test composition) [%] | % Kill of Bedbug Eggs and Nymphs ([2]; 1% aqueous test composition) [%] | kill of bedbug eggs [3] | % Kill of Bedbug Eggs ([1]; 0.1% aqueous test composition) [%] | % Kill of Bedbug Eggs and Nymphs ([2]; 0.1% aqueous test composition) [%] |
| --- | --- | --- | --- | --- | --- |
| sodium lauryl ether sulfate | 35 | 35 |  |  |  |
| CCCCCCCCS(=O)(=O)[O-].[Na+] [sodium octyl sulfonate] | 90 | 95 |  |  |  |
| CCCCCCCCCCCCOS(=O)(=O)[O-].[Na+] [sodium lauryl sulfate] | 75 | 100 | did not kill | 70 | 95 |
| sodium dodecylbenzene sulfonate | 30 | 30 |  |  |  |
